Source: PubChem BioAssay (NCI)
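Results reflect a 48-hour exposure of cells in 96-well plates to compound at five concentrations. Abbreviation: GI50, concentration required for 50% inhibition of growth. TGI: total growth inhibition.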

Tests used:
Experiment in all cases: NCI anticancer screen, dose series, 48 h
[1] = tested on: COLO 205 colon
[2] = tested on: HL-60(TB) leukemia
[3] = tested on: IGROV1 ovarian
[4] = tested on: K-562 leukemia
[5] = tested on: LOX IMVI melanoma
[6] = tested on: MDA-MB-231 breast
[7] = tested on: NCI-H226 lung
[8] = tested on: NCI-H460 lung
[9] = tested on: OVCAR-5 ovarian
[10] = tested on: MALME-3M melanoma

SMILES	GI50 [1]	TGI [1]	GI50 [2]	TGI [2]	GI50 [3]	TGI [3]	GI50 [4]	TGI [4]	GI50 [5]	TGI [5]	GI50 [6]	TGI [6]	GI50 [7]	TGI [7]	GI50 [8]	TGI [8]	GI50 [9]	TGI [9]	TGI [10]	GI50 [10]
Cc1ccc(C2C3Cc4ccccc4C3=NN2c2ccc(S(=O)(=O)NC(=O)Nc3ccccc3)cc2)cc1 (stereo not drawn)	18.6 µM	53.3 µM	19.6 µM	42.1 µM	1.15 µM	19.7 µM	11.5 µM	26.8 µM	13.5 µM	27.9 µM	10.8 µM	22.7 µM	15.9 µM	49.2 µM	19.3 µM	70.1 µM	14.5 µM	30.5 µM		
Nc1ncnc2c1ncn2CCCCC(=O)O		> 100 µM				> 100 µM		> 100 µM		> 100 µM		> 100 µM		> 100 µM		> 100 µM		> 100 µM	> 100 µM	
Cc1ccc(NC(=O)CCC(=O)C2Cc3ccccc3C2=O)cc1C (stereo not drawn)		> 100 µM		> 100 µM		> 100 µM		> 100 µM		> 100 µM				> 100 µM		> 100 µM		> 100 µM	> 100 µM	
CCc1cccc(NC(=O)c2cc(/C=C/c3ccccc3)[nH]c(=S)n2)c1		> 100 µM		> 100 µM		> 100 µM		> 100 µM						> 100 µM		> 100 µM		> 100 µM	> 100 µM	
CC[P+]1(c2ccccc2)CCCCC1		> 100 µM		> 100 µM		> 100 µM		> 100 µM		> 100 µM				> 100 µM		> 100 µM		> 100 µM	> 100 µM	
CCCCNCCCCCNc1cc(OC)cc2cccnc12	17.2 µM	33.8 µM			14.6 µM	29.1 µM	20.4 µM	44.8 µM	34.8 µM	> 100 µM	23.2 µM	50.8 µM	23.8 µM	64.5 µM	89.4 µM	> 100 µM	15.1 µM	30.9 µM	42.9 µM	18 µM
CCN(CC)CCCC(C)Nc1ccnc(/C=C/c2ccc(Cl)cc2)c1 (stereo not drawn)		3.01 µM		> 100 µM		9.47 µM				3.28 µM		3.19 µM	2.02 µM	4.97 µM		7.49 µM		8.04 µM	3.08 µM	
C=C1C(C(=O)O)C1C(=O)O (stereo not drawn)				> 100 µM		> 100 µM		> 100 µM		> 100 µM				> 100 µM		> 100 µM		> 100 µM	> 100 µM	
CC(C)(C)OC1=C(OC(C)(C)C)C(O)(c2ccc(Cl)cc2)C1=O (stereo not drawn)		> 100 µM		> 100 µM		> 100 µM		> 100 µM		> 100 µM						> 100 µM		> 100 µM	> 100 µM	
CCOP(=O)(OCC)C(NC(c1ccccc1)c1ccccc1)c1ccc(C(C)C)cc1 (stereo not drawn)							3.48 µM	14.8 µM	4.33 µM	16 µM	6.12 µM	20.8 µM			5.91 µM	> 100 µM				
CC(=O)c1ccc(Oc2c3ccccc3nc3occc23)cc1	24.1 µM	> 100 µM	8.43 µM	> 100 µM	55.7 µM	> 100 µM	2.93 µM	> 100 µM	6.35 µM	> 100 µM			15.1 µM	90.3 µM	23.3 µM	> 100 µM	27.3 µM	> 100 µM	> 100 µM	4.14 µM
CCc1ccccc1NC(=O)C(=O)C(C#N)c1c(Cl)cccc1Cl (stereo not drawn)				> 100 µM		> 100 µM		> 100 µM		> 100 µM				> 100 µM					> 100 µM	
C=C1C(O)C2CC(C)(C)C(=O)C2=C(CC(C)C)C12CC2 (stereo not drawn)	> 100 µM	> 100 µM			55.6 µM	> 100 µM	> 100 µM	> 100 µM	> 100 µM	> 100 µM	> 100 µM	> 100 µM			> 100 µM	> 100 µM	> 100 µM	> 100 µM	> 100 µM	> 100 µM
COc1cc(NCCC2CCCCN2)c2ncccc2c1OC (stereo not drawn)	10 µM	24.2 µM							1.95 µM	5.49 µM	3.02 µM	12.5 µM	23.5 µM	46.8 µM	10.5 µM	24.8 µM	19.1 µM	62.7 µM	30 µM	14.2 µM
COc1ccc(/C=C/c2nc(=S)[nH][nH]2)cc1OC				> 100 µM		> 100 µM		> 100 µM		> 100 µM				> 100 µM		> 100 µM		> 100 µM	> 100 µM	
Nc1cc(N)c2nc(-c3ccccc3)c(NCc3ccc(Cl)c(Cl)c3)nc2c1	16.9 µM	33.6 µM	1.82 µM	7.94 µM	1.97 µM	5.95 µM	3.09 µM	17.8 µM			1.58 µM	4.45 µM	22.6 µM	46.3 µM	20.8 µM	46.9 µM	23.8 µM	40.7 µM	13.8 µM	3.41 µM
O=C1C2C3C=C4c5ccccc5N(c5ccccc5)C4([C@@H]2C(=O)N1c1ccc(F)cc1)[C@H]1C(=O)N(c2ccc(F)cc2)C(=O)[C@@H]31 (stereo partly drawn)		> 100 µM		> 100 µM				> 100 µM		> 100 µM				> 100 µM				> 100 µM	> 100 µM	
CC(=O)O[C@H]1CC[C@]2(C)C3C(=O)C[C@]4(C)[C@@H](C(C)CCC(=O)O)CC[C@@]4(C)[C@@H]3CC[C@H]2C1(C)C (stereo partly drawn)	20.9 µM	> 50 µM	8.65 µM	> 50 µM	34.7 µM	> 50 µM	14.9 µM	> 50 µM	7.64 µM	20.7 µM	> 50 µM	> 50 µM	> 50 µM	> 50 µM	14.3 µM	> 50 µM	> 50 µM	> 50 µM		
O=C(O)c1cc(Cl)cc(Cc2cc(Cl)cc(C(=O)O)c2O)c1O		> 100 µM				> 100 µM		> 100 µM		> 100 µM		> 100 µM				> 100 µM		> 100 µM	> 100 µM	

SMILES	GI50 [1]	TGI [1]	GI50 [2]	TGI [2]	GI50 [3]	TGI [3]	GI50 [4]	TGI [4]	GI50 [5]	TGI [5]	GI50 [6]	TGI [6]	GI50 [7]	TGI [7]	GI50 [8]	TGI [8]	GI50 [9]	TGI [9]	TGI [10]	GI50 [10]
Oc1cc(O)c2c(c1)OC(c1ccc(O)c(O)c1)C(O)C2c1c(O)cc(O)c2c1OC(c1ccc(O)c(O)c1)C(O)C2 (stereo not drawn)		> 100 µM				> 100 µM				> 100 µM		> 100 µM		> 100 µM		> 100 µM		> 100 µM	> 100 µM	
CCOC(=O)c1ccc(NC(=O)c2cccc(NC3=C(Cl)C(=O)N(Cc4ccccc4)C3=O)c2)cc1	> 100 µM	> 100 µM	17.2 µM	45.9 µM	65 µM	> 100 µM	33.3 µM	> 100 µM	60.3 µM	> 100 µM	92 µM	> 100 µM	> 100 µM	> 100 µM	> 100 µM	> 100 µM				
CNC(=O)NCCN1N=C(C)/C(=C\c2ccccc2)CC1=O				> 100 µM		> 100 µM		> 100 µM		> 100 µM				> 100 µM		> 100 µM		> 100 µM	> 100 µM	
CCOC(=O)c1cc2c(n1Cc1cc(OC)cc(OC)c1)-c1oncc1CC2	0.182 µM	0.616 µM	0.0634 µM	1.15 µM	0.226 µM	> 100 µM	0.0518 µM	> 100 µM	0.593 µM	> 100 µM	1.09 µM	> 95.8 µM	2.75 µM	> 100 µM	0.139 µM	> 37.8 µM	0.474 µM	> 100 µM		
N#CC(C#N)=C1CCC2C(=C(C#N)C#N)CCC12 (stereo not drawn)		> 100 µM		> 100 µM		> 100 µM		> 100 µM		> 100 µM				> 100 µM		> 100 µM		> 100 µM	> 100 µM	
N#CC1=C(c2ccccc2)OC2(N)OC(c3ccccc3)=C(C#N)C12C#N (stereo not drawn)		> 100 µM				> 100 µM		> 100 µM		> 100 µM						> 100 µM		> 100 µM	> 100 µM	
C=C1C(=O)O[C@H]2[C@H]1CC/C(COC(=O)N[C@H](Cc1c[nH]c3ccccc13)C(=O)OC)=C\CC[C@@]1(C)O[C@@H]21	1.81 µM	3.76 µM			1.85 µM	5.35 µM	1.72 µM	8.29 µM	1.36 µM	2.85 µM	2 µM	5.59 µM	2.2 µM	5.73 µM	5.79 µM	21.2 µM	3.25 µM	13.8 µM	4.24 µM	1.95 µM
CC(=O)[CH-]C(=O)c1ccccc1.CC(=O)[CH-]C(=O)c1ccccc1.CC(=O)[CH-]C(=O)c1ccccc1.[Br-].[Zr+4]	> 100 µM	> 100 µM	52.7 µM	> 100 µM	> 100 µM	> 100 µM	> 100 µM	> 100 µM	89.7 µM	> 100 µM					78.3 µM	> 100 µM	29.8 µM	> 100 µM	55.3 µM	20.2 µM
O=C(O)CCSC(=O)Nc1ccccc1		> 100 µM		> 100 µM		> 100 µM		> 100 µM		> 100 µM				> 100 µM		> 100 µM		> 100 µM		
O=C1CCc2ccc(O)c(c2)Oc2ccc(cc2)[C@@H]2O[C@@H]2CO1		> 100 µM		> 100 µM		50.5 µM		> 100 µM		> 100 µM				> 100 µM				> 100 µM	62.1 µM	
CN(C)CCNC(=O)c1cccc2c1nc(-c1ccncc1)c1ccccc12		9.66 µM		> 100 µM		20.1 µM		> 100 µM		3.66 µM				10.5 µM		3.05 µM		23.7 µM		
CC1(C)CN(CCNc2nccc(-c3c(-c4cccc(O)c4)nc4sccn34)n2)S(=O)(=O)N1	0.448 µM	7.25 µM	10.2 µM	30.2 µM	6.58 µM	> 33.2 µM	6.46 µM	> 33.2 µM	1.82 µM	> 33.2 µM	7.94 µM	> 33.2 µM	10.4 µM	32.4 µM	7.07 µM	> 33.2 µM	> 33.2 µM	> 33.2 µM		
COc1ccc(NC(=O)c2cccc(C3CCc4c(cc(OC)c(OC)c4OC)O3)c2)cc1 (stereo not drawn)	2.39 µM	6.67 µM	1.25 µM	> 100 µM	4.96 µM	> 100 µM	0.654 µM	> 100 µM	3.94 µM	> 100 µM	4.13 µM	> 100 µM			3.33 µM	> 100 µM	6.46 µM	> 100 µM	> 100 µM	2.69 µM
O=C(c1ccc(Nc2nccc(NCCCCNc3ccnc4cc(Cl)ccc34)n2)cc1)N1CCCCC1	1.52 µM	3.25 µM			2.83 µM	9.08 µM			0.971 µM	2.33 µM	1.86 µM	4.97 µM	3.59 µM	13.7 µM	0.475 µM	2.98 µM	4.32 µM	25.9 µM		
C/C=C1/C(=Cc2[nH]c(C=c3[nH]/c(=C/C4=NC(=O)C(CC)=C4C)c(C)c3CCC(=O)O)c(CCC(=O)O)c2C)NC(=O)C1C (stereo not drawn)		> 50 µM		> 50 µM		> 50 µM		> 50 µM		2.61 µM				10.8 µM		40.6 µM		27.4 µM	31.9 µM	
CCOC(=O)CCn1cnc(N)n1		> 100 µM		> 100 µM		> 100 µM		> 100 µM		> 100 µM				> 100 µM		> 100 µM		> 100 µM	> 100 µM	
COc1ccc(C(Nc2ccccn2)c2cc(C(C)(C)C)cc(C(C)(C)C)c2O)cc1 (stereo not drawn)		50 µM				> 100 µM		> 100 µM		35.8 µM		> 100 µM		47.9 µM		55.7 µM		> 100 µM	24.4 µM	
O=C(NCc1ccccc1)C1C(=O)C(=O)N(Cc2ccccc2)C1=O (stereo not drawn)		> 100 µM		> 100 µM		> 100 µM		> 100 µM		> 100 µM				> 100 µM		> 100 µM		> 100 µM	> 100 µM	
